From PMC8899820, “Pharmacokinetics, Tissue Distribution, and Excretion Characteristics of a Radix Polygoni Multiflori Extract in Rats” (Frontiers in Pharmacology, 2022)
Where two headings read alike, the source gives them in different places. Values belong to the compound of their own block, whether it stands above or below them.

What was measured:
[1] = RPM extract 36 g/kg p.o., rat plasma, Mean ± SD, n = 6; ref Cheng et al., 2020; cited from earlier work
[2] = cited from earlier work
[3] = Tissue distribution of RPM constituents after oral RPM extract; conditions: for AUC(0-t): Sprague-Dawley, rat, po, 18 g/kg
Method: For the tissue distribution study, 18 rats were randomly divided into three groups (n = 6, each) and orally administered 18 g/kg RPM extract. The rats under isoflurane anesthesia were sacrificed by bleeding from the abdominal aorta at 5, 15, and 60 min (six rats per time point) after gavage with 18 g/kg RPM extract. Subsequently, the heart, liver, spleen, lung, kidney, brain, stomach, small intestine, bladder, and gonads (testes of male rats, and uterus and ovaries of female rats) were immediately collected. An accurately weighed amount of fresh tissue sample (0.25 g) was individually homogenized with normal saline (1 ml) and transferred (50 μL) as a tissue homogenate to 1.5 ml centrifuge tubes for use as the tissue samples. All tissue samples were stored at −70°C until analysis.
Samples were prepared using the protein precipitation process. […] The tissue samples were homogenized in four parts of ice-cold 0.9% saline solution and then centrifuged at 4°C and 12,000 × g for 10 min to obtain tissue homogenates. […] Tissue homogenate, urine, bile and fecal samples were subjected to a similar process as the rat plasma samples.
For the tissue distribution study, 18 rats were randomly divided into three groups (n=6, each), and orally administered with 18 g/kg RPM extract. The rats were sacrificed at 5, 15, 60 min after orally administering RPM. Subsequently, the heart, liver, spleen, lung, kidney, brain, stomach, small intestine, bladder, gonad (testes of male rats, uterus and ovaries of female rats) were immediately collected. An accurately weighed amount of fresh tissue sample (0.25 g) was individually homogenized with normal saline (1 mL) and transferred (50 μL) as a tissue homogenate to 1.5 mL centrifuge tubes for use as the tissue samples.

[4] = Plasma pharmacokinetics of RPM constituents after oral RPM extract; conditions: for time at which C max was exhibited: RPM extract p.o.; for AUC(0-inf) / AUC(0-t) / Cmax / MRT inf / Tmax / half-life: Sprague-Dawley, rat, plasma, po
From the text: For the pharmacokinetic (PK) study, three groups (n = 6 each) of rats were orally administered RPM extract (6, 18, and 36 g/kg). In the plasma pharmacokinetics experiment, doses were 6, 18, and 36 g/kg for the single administration group and 18 g/kg for the continuous administration group. The doses were set at a subtoxic level ([Zhang et al., 2013]; [Wang et al., 2015]) to investigate the pharmacokinetic profiles of the constituents of RPM (36 g/kg group) and were approximately 60 times the upper dose (6 g/day) for humans recommended by the 2020 edition of Chinese Pharmacopoeia ([Chinese Pharmacopoeia Commission, 2020]), which was converted to a dose for rats based on body surface area conversion ([Reagan-Shaw et al., 2008]). In addition, the low and medium doses decreased in a certain proportion. Serial blood samples (∼120 μL; before dosing and at 5, 15, and 30 min, and 1, 2, 4, 6, 8, 12, and 24 h after administration) were collected in heparinized tubes from the orbital sinus under light isoflurane. The blood samples were centrifuged at 12000 g for 2 min, and the plasma fractions were decanted and frozen at −70°C until analysis.
Samples were prepared using the protein precipitation process. Rat plasma (50 μL) spiked with 10 μL of IS (puerarin 100 ng/ml) was extracted with 150 μL acetonitrile. After vortex shaking for 5 min and centrifugation at 14,000 g for 5 min, 150 μL of the organic layer was transferred to a clean tube and evaporated to dryness at 25°C under a stream of nitrogen. The residue was reconstituted in 50 μL of the initial mobile phase and subjected to another round of centrifugation at 14,000 g for 5 min, and 5 μL of the supernatant was injected for LC–MS/MS analysis.
The analysis was performed on an AB Sciex API 5500 Q Trap mass spectrometer (Toronto, Canada), interfaced with a Waters Acquity UPLC separation module.
(§1) The pharmacokinetic parameters, including the area under the plasma concentration-time curve from time zero to time t (AUC0-t) to time infinity (AUC0-∞), the time to reach the maximum plasma concentration (T max), the elimination half-time (t 1/2), and the maximum plasma concentration (C max), were calculated using the pharmacokinetic software Phoenix® WinNonlin®, version 7.0 (Scientific Consulting Inc., Apex, NC, United States). Data are expressed as the mean ± standard deviation (SD) for each group. The dose-exposure relationship was evaluated by the power function model combined with the confidence interval method ([Smith et al., 2000]; [Sethuraman et al., 2007]; [Hummel et al., 2009]). First, the administration dose, AUC0-∞ and C max were logarithmically transformed, and then a linear regression was performed to obtain the curve correlation coefficient (R^2), slope and 90% confidence interval (90% CI).

[5] = Biliary excretion in bile duct drained rats after oral RPM extract; conditions: single p.o. RPM extract 18 g/kg, rat bile
Method: (§2) For the excretion study, the rats were housed singly in metabolic cages with urine collection tubes kept at 4 °C during sample collection. Urine and fecal samples were collected at time intervals of 0–4, 4–8, 8–24, 24–32, and 32–48 h after a single dose of RPM extract at 18 g/kg and then weighed. Another six rats were anesthetized with pentobarbital, fixed in the supine position and subjected to bile duct drainage surgery, and the abdominal wound was sutured. Blank bile samples were collected before the administration of RPM. The rats were weighed, and the state of the rats was observed. Subsequently, they were orally administered 18 g/kg RPM extract. The bile samples were collected at time intervals of 0–1, 1–2, 2–4, 4–6, 6–8, 8–24, 24–32 and 32–48 h. The urine, feces, and bile samples were stored at −70°C until use.
(§3) Samples were prepared using the protein precipitation process. […] After vortex shaking for 5 min and centrifugation at 14,000 g for 5 min, 150 μL of the organic layer was transferred to a clean tube and evaporated to dryness at 25°C under a stream of nitrogen. The residue was reconstituted in 50 μL of the initial mobile phase and subjected to another round of centrifugation at 14,000 g for 5 min, and 5 μL of the supernatant was injected for LC–MS/MS analysis. […] Urine and bile samples were centrifuged at 4°C and 12,000 × g for 15 min. Fecal samples were homogenized in 0.9% saline and then centrifuged at 4°C and 12,000 × g for 15 min to gather the fecal homogenates. Tissue homogenate, urine, bile and fecal samples were subjected to a similar process as the rat plasma samples.
(§4) For the excretion study, 6 rats were placed in metabolic cage after orally administered with 18 g/kg RPM extract, and urine, feces samples were collected at time intervals of 0–4, 4–8, 8–24, 24–32, 32–48, 48–60, and 60–72 h. Another 6 rats were anesthetized with pentobarbital, fixed in the supine position and performed bile duct drainage operation, and the abdominal wound was sutured. […] Subsequently, they were orally administered with 18 g/kg RPM extract. The bile samples were collected at time intervals of 0–1, 1–2, 2–4, 4–6, 6–8, 8–24, 24–32 and 32–48 h. The urine, feces, and bile samples were stored at −70 °C until use.

[6] = Excretion into urine and feces and mass balance after oral RPM extract; conditions: for dose excreted: Sprague-Dawley, rat, po, mass balance, 18 g/kg RPM extract p.o.; for cumulative excretion into feces / cumulative excretion into urine: single p.o. RPM extract 18 g/kg; for cumulative excretion into feces: rat feces; for cumulative excretion into urine: rat urine
Method: as §2, §3, §4

[7] = Dose-exposure relationship (power function model with confidence interval method)
Method: as §1

[8] = parameters: method as in Wang P. et al., 2011; conditions: ref Wang P. et al., 2011, cited from earlier work
[9] = feces, Recovery in feces (%), feces collected 0–72 h
[10] = urine and feces, Recovery in urine and feces (%), urine plus feces, 0–72 h
[11] = urine, Recovery in urine (%), urine collected 0–72 h
[12] = AUC0-∞ vs p.o. dose of RPM extract, critical interval 0.88–1.12
[13] = C max vs p.o. dose of RPM extract, critical interval 0.80–1.20
[14] = log AUC0-∞ vs log p.o. dose of RPM extract, critical interval 0.88–1.12
[15] = log C max vs log p.o. dose of RPM extract, critical interval 0.80–1.20
[16] = both, bladder, AUC0-t in bladder, rat tissue: bladder, 18 g/kg RPM extract p.o., tissues collected at 5, 15, 60 min
[17] = both, brain, AUC0-t in brain, rat tissue: brain, 18 g/kg RPM extract p.o., tissues collected at 5, 15, 60 min
[18] = both, heart, AUC0-t in heart, rat tissue: heart, 18 g/kg RPM extract p.o., tissues collected at 5, 15, 60 min
[19] = both, intestine, AUC0-t in intestine, rat tissue: intestine, 18 g/kg RPM extract p.o., tissues collected at 5, 15, 60 min
[20] = both, kidney, AUC0-t in kidney, rat tissue: kidney, 18 g/kg RPM extract p.o., tissues collected at 5, 15, 60 min
[21] = both, liver, AUC0-t in liver, rat tissue: liver, 18 g/kg RPM extract p.o., tissues collected at 5, 15, 60 min
[22] = both, lung, AUC0-t in lung, rat tissue: lung, 18 g/kg RPM extract p.o., tissues collected at 5, 15, 60 min
[23] = both, spleen, AUC0-t in spleen, rat tissue: spleen, 18 g/kg RPM extract p.o., tissues collected at 5, 15, 60 min
[24] = both, stomach, AUC0-t in stomach, rat tissue: stomach, 18 g/kg RPM extract p.o., tissues collected at 5, 15, 60 min
[25] = female, ovary, AUC0-t in ovary, rat tissue: ovary, 18 g/kg RPM extract p.o., tissues collected at 5, 15, 60 min
[26] = female, uterus, AUC0-t in uterus, rat tissue: uterus, 18 g/kg RPM extract p.o., tissues collected at 5, 15, 60 min
[27] = male, testis, AUC0-t in testis, rat tissue: testis, 18 g/kg RPM extract p.o., tissues collected at 5, 15, 60 min

Compound: Cc1cc(O)c2c(c1)C(=O)c1cc(O)cc(O)c1C2=O [Emodin, emodin]
AUC0-∞ [1]: 2,970 ± 863 nmol·h/L | AUC(0-t) [1]: 2,540 ± 694 nmol·h/L | Cmax [1]: 648 ± 125 nM | logP ([2]; ref Liu et al., 2010): 5.03 | AUC(0-t) ([3]; both, bladder): 0.988 µM·h | AUC(0-t) ([3]; both, brain): 0.244 µM·h | AUC(0-t) ([3]; both, heart): 1.64 µM·h | AUC(0-t) ([3]; both, intestine): 5.57 µM·h | AUC(0-t) ([3]; both, kidney): 2.83 µM·h | AUC(0-t) ([3]; both, liver): 6.36 µM·h | AUC(0-t) ([3]; both, lung): 7.11 µM·h | AUC(0-t) ([3]; both, spleen): 19.1 µM·h | AUC(0-t) ([3]; both, stomach): 1.72 µM·h | AUC(0-t) ([3]; female, ovary): 0.57 µM·h | AUC(0-t) ([3]; female, uterus): 0.773 µM·h | AUC(0-t) ([3]; male, testis): 0.116 µM·h | AUC0-t in spleen ([3]; rat tissue: spleen, 18 g/kg RPM extract p.o., tissues collected at 5, 15, 60 min): 19.1 µM·h | time at which C max was exhibited ([4]; rat plasma): ≤ 20 min | AUC(0-inf) ([4]; 6 g/kg): 1.35 µM·h | AUC(0-t) ([4]; 6 g/kg): 1.04 µM·h | Cmax ([4]; 6 g/kg): 205 ± 39.4 nM | MRT inf ([4]; 6 g/kg): 12.7 ± 4.65 h | Tmax ([4]; 6 g/kg): 0.12 ± 0.07 h | half-life ([4]; 6 g/kg): 7.72 ± 3.67 h | AUC(0-inf) ([4]; 18 g/kg): 2.91 µM·h | AUC(0-t) ([4]; 18 g/kg): 2.48 µM·h | Cmax ([4]; 18 g/kg): 491 ± 35.8 nM | MRT inf ([4]; 18 g/kg): 13 ± 4.18 h | Tmax ([4]; 18 g/kg): 0.14 ± 0.09 h | half-life ([4]; 18 g/kg): 9.44 ± 3.63 h | cumulative excretion into bile [5]: 70.7 ± 20.4 nmol | dose excreted [6, 9]: 23.6% | dose excreted [6, 10]: 32.5% | dose excreted [6, 11]: 8.82% | cumulative excretion into feces [6]: 50.3 ± 6.18 nmol | cumulative excretion into urine [6]: 19.0 ± 3.81 nmol | Conclusion (dose-exposure relationship) [7, 12]: Nonlinear correlation | Conclusion (dose-exposure relationship) [7, 13]: Nonlinear correlation | Slope (90%CI) [7, 14]: 0.466 (0.290–0.642) | Slope (90%CI) [7, 15]: 0.656 (0.554–0.758)

AUC(0-t) [3, 16]: 18.2 µM·h | AUC(0-t) [3, 17]: 6.42 µM·h | AUC(0-t) [3, 18]: 45.5 µM·h | AUC(0-t) [3, 19]: 71.7 µM·h | AUC(0-t) [3, 20]: 86.4 µM·h | AUC(0-t) ([3]; both, kidney, AUC0-t in the kidney, RPM extract 18 g/kg p.o., rat kidney, sampling 5, 15, 60 min): 86.4 µM·h | AUC(0-t) [3, 21]: 114 µM·h | AUC(0-t) [3, 22]: 35.1 µM·h | AUC(0-t) [3, 23]: 68.7 µM·h | AUC(0-t) [3, 24]: 47.9 µM·h | AUC(0-t) [3, 25]: 7.59 µM·h | AUC(0-t) [3, 26]: 12.2 µM·h | AUC(0-t) [3, 27]: 7.77 µM·h | time at which C max was exhibited ([4]; rat plasma): ≤ 20 min | AUC(0-inf) ([4]; 6 g/kg): 2.46 µM·h | AUC(0-t) ([4]; 6 g/kg): 2.38 µM·h | Cmax ([4]; 6 g/kg): 1670 nM | MRT inf ([4]; 6 g/kg): 3.86 ± 1.17 h | Tmax ([4]; 6 g/kg): 0.24 ± 0.15 h | half-life ([4]; 6 g/kg): 6.53 ± 2.45 h | AUC(0-inf) ([4]; 18 g/kg): 4.2 µM·h | AUC(0-t) ([4]; 18 g/kg): 4.04 µM·h | Cmax ([4]; 18 g/kg): 3260 nM | MRT inf ([4]; 18 g/kg): 4.37 ± 0.91 h | half-life ([4]; 18 g/kg): 6.54 ± 2.02 h | cumulative excretion into bile [5]: 410 ± 55.4 nmol | dose excreted [6, 9]: 24.6% | dose excreted [6, 10]: 38.9% | dose excreted [6, 11]: 14.3% | cumulative excretion into feces [6]: 2778 ± 349 nmol | cumulative excretion into urine [6]: 1619 ± 208 nmol | Conclusion (dose-exposure relationship) [7, 12]: Nonlinear correlation | Conclusion (dose-exposure relationship) [7, 13]: Nonlinear correlation | Slope (90%CI) [7, 14]: 0.342 (0.204–0.479) | Slope (90%CI) [7, 15]: 0.536 (0.422–0.649)
Compound: OC[C@H]1O[C@@H](Oc2c(O)cc(O)cc2/C=C/c2ccc(O)cc2)[C@H](O)[C@@H](O)[C@@H]1O [TSG, 2,3,5,4′-teterahydroxystilbene-2-O-β-D-glucoside]
AUC0-∞ [1]: 4,610 ± 1,430 nmol·h/L | AUC(0-t) [1]: 4,460 ± 1,360 nmol·h/L | Cmax [1]: 4290 nM | logP ([2]; no source given): 0.10

plasma concentrations ([4]; RPM extract 6, 18 and 36 g/kg p.o., rat plasma): too low to be detected
Compound: COc1cc(O)c2c(c1)C(=O)c1cc(C)cc(O)c1C2=O [Physcion, physcion]
Peff ([8]; colon): (7.45 ± 3.30) × 10^–3 cm/min | Peff ([8]; duodenum): (3.32 ± 1.50) × 10^–3 cm/min | Peff ([8]; ileum): (2.40 ± 0.58) × 10^–3 cm/min | Peff ([8]; jejunum): (2.30 ± 1.57) × 10^–3 cm/min

AUC(0-t) [3, 16]: 0.438 µM·h | AUC(0-t) [3, 17]: 0.0185 µM·h | AUC(0-t) [3, 18]: 1.78 µM·h | AUC(0-t) [3, 19]: 0.181 µM·h | AUC(0-t) [3, 20]: 0.845 µM·h | AUC(0-t) [3, 21]: 3.81 µM·h | AUC(0-t) [3, 22]: 0.438 µM·h | AUC(0-t) [3, 23]: 1.19 µM·h | AUC(0-t) [3, 24]: 1.46 µM·h | AUC(0-t) [3, 25]: 0.153 µM·h | AUC(0-t) [3, 26]: 0.38 µM·h | AUC(0-t) [3, 27]: 0.0698 µM·h | time at which C max was exhibited ([4]; rat plasma): ≤ 20 min | AUC(0-inf) ([4]; 6 g/kg): 0.0166 ± 0.0109 µM·h | AUC(0-t) ([4]; 6 g/kg): 0.0158 ± 0.0106 µM·h | Cmax ([4]; 6 g/kg): 12.4 ± 2.66 nM | MRT inf ([4]; 6 g/kg): 1.58 ± 0.77 h | Tmax ([4]; 6 g/kg): 0.19 ± 0.09 h | half-life ([4]; 6 g/kg): 1.23 ± 0.58 h | AUC(0-inf) ([4]; 18 g/kg): 0.0495 ± 0.0171 µM·h | AUC(0-t) ([4]; 18 g/kg): 0.048 ± 0.0172 µM·h | Cmax ([4]; 18 g/kg): 37.3 ± 4.57 nM | MRT inf ([4]; 18 g/kg): 2.23 ± 0.3 h | Tmax ([4]; 18 g/kg): 0.11 ± 0.07 h | half-life ([4]; 18 g/kg): 1.9 ± 0.22 h | cumulative excretion into bile [5]: 8.96 ± 2.38 nmol | dose excreted [6, 9]: 27.9% | dose excreted [6, 10]: 45.5% | dose excreted [6, 11]: 17.6% | cumulative excretion into feces [6]: 30.4 ± 5.73 nmol | cumulative excretion into urine [6]: 19.1 ± 2.99 nmol | Conclusion (dose-exposure relationship) [7, 12]: Uncertainty of linear relationship | Slope (90%CI) [7, 14]: 0.720 (0.464–0.977) | Slope (90%CI) [7, 15]: 0.756 (0.627–0.884)
Compound: COc1cc(O[C@@H]2O[C@H](CO)[C@@H](O)[C@H](O)[C@H]2O)c2c(O)c(C(C)=O)c(C)cc2c1 [TG, torachrysone-8-O-glucoside]
AUC0-∞ [1]: 53.0 ± 18.3 nmol·h/L | AUC(0-t) [1]: 51.9 ± 18.1 nmol·h/L | Cmax [1]: 45.8 ± 9.94 nM | MRT0-∞ [1]: 2.10 ± 0.24 h | t 1/2 [1]: 2.00 ± 0.63 h
